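Cells were grown in 96-well plates and exposed to each compound for 48 hours at five concentrations; endpoints were interpolated linearly between bracketing concentrations, or set to the highest concentration if not reached. TGI marks complete inhibition of growth.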 Where a SMILES comes first, the peptide text is derived from it. The star is where a group is joined. Cbz = O=C(OCc1ccccc1)*
Columns and labels:
Assay in all cases: DTP human tumour cell line panel, 48 h
CAKI-1 renal = test system: CAKI-1 renal
EKVX NSCLC = test system: EKVX NSCLC
HS 578T breast = test system: HS 578T breast
NCI/ADR-RES ovarian = test system: NCI/ADR-RES ovarian
SK-MEL-5 melanoma = test system: SK-MEL-5 melanoma
SK-OV-3 ovarian = test system: SK-OV-3 ovarian
SNB-19 CNS = test system: SNB-19 CNS
SNB-75 CNS = test system: SNB-75 CNS
UACC-257 melanoma = test system: UACC-257 melanoma
DU-145 prostate = test system: DU-145 prostate
HL-60(TB) leukemia = test system: HL-60(TB) leukemia
SK-MEL-28 melanoma = test system: SK-MEL-28 melanoma

SMILES	TGI (CAKI-1 renal)	TGI (EKVX NSCLC)	TGI (HS 578T breast)	TGI (NCI/ADR-RES ovarian)	TGI (SK-MEL-5 melanoma)	TGI (SK-OV-3 ovarian)	TGI (SNB-19 CNS)	TGI (SNB-75 CNS)	TGI (UACC-257 melanoma)	TGI (DU-145 prostate)	TGI (HL-60(TB) leukemia)	TGI (SK-MEL-28 melanoma)
CC(=O)c1c(N=[N+]=[N-])c2cccc3c2n(c1=O)CCC3	57.8 µM	54.1 µM	78.3 µM	38.2 µM	28.5 µM	> 100 µM	> 100 µM	59.3 µM	37.8 µM			
CCCCC1Cc2cc(O)ccc2-c2nc3cc(O)ccc3n21 (centres undefined) (tested in a mixture with another compound)	89 µM	51.9 µM	35.1 µM	49.4 µM	26.3 µM	40.4 µM	26.3 µM		45.6 µM	> 100 µM	41.9 µM	
CCCC(=O)[O-].CCCC(=O)[O-].NCCN.NCCN.[Co+3].[O-][Cl+3]([O-])([O-])[O-]		> 100 µM			> 100 µM	> 100 µM	> 100 µM	> 100 µM	> 100 µM			> 100 µM
N/C(=N\S(=O)(=O)c1ccc(-c2ncccc2C(F)(F)F)s1)Nc1ccc(Cl)cc1		19 µM	40.5 µM	41.1 µM	> 100 µM	33.7 µM	34.4 µM	40 µM	14 µM	36.4 µM	46.4 µM	34.4 µM
O=c1[nH]nc(Cc2ccc(Cl)cc2)n1/N=C/c1cccs1	> 100 µM	> 100 µM		> 100 µM		> 100 µM	64 µM	49.9 µM	> 100 µM	> 100 µM	> 100 µM	> 100 µM
C=CC1(CC[C@]2(c3ccc(OC)c(OC)c3)C=[N+]([O-])O[C@H](O[C@@H]3CCCC[C@H]3C(C)(C)c3ccccc3)C2)OCC(C)(C)CO1	> 28 µM	45.5 µM		31 µM	28.3 µM	> 65.3 µM	> 54.1 µM	> 52.2 µM	> 54.2 µM	49.9 µM	4.81 µM	53.8 µM
Cc1cc(C)nc(NC(P(=O)(O)O)P(=O)(O)O)n1	> 100 µM	> 100 µM	> 100 µM	> 100 µM	> 100 µM	> 100 µM	> 100 µM		> 100 µM	> 100 µM		
C[n+]1c2ccccc2c(NC(CCCN=C(N)N)C(=O)O)c2ccccc21 (centres undefined)	> 100 µM	> 100 µM			> 100 µM	> 100 µM	> 100 µM	> 100 µM	> 100 µM		> 100 µM	
O=C1CC(=O)NC(=NN2C(=O)/C(=C/c3ccc(Cl)c(Cl)c3)N=C2c2ccccc2)N1	> 100 µM		50.9 µM	54.2 µM	30.3 µM	> 100 µM		81.8 µM	> 100 µM	> 100 µM		78 µM
O=C1/C(=C\c2cccc(Oc3ccccc3)c2)S(=O)(=O)C(c2ccccc2)N1c1cccc(Cl)c1 (centres undefined)	> 100 µM	> 100 µM	> 100 µM	> 100 µM	> 100 µM	> 100 µM	> 100 µM	> 100 µM	> 100 µM	> 100 µM		> 100 µM
Nc1c(S(=O)(=O)c2ccccc2)c2nc3ccccc3nc2n2c1nc1ccccc12	> 100 µM	> 100 µM			> 66.2 µM	> 100 µM	> 93.2 µM	> 51.1 µM	> 100 µM		> 100 µM	> 62.3 µM
COc1cc2c(cc1O)NC(=O)[C@@H]1CCCN1C2=O	> 100 µM	> 100 µM	> 100 µM	> 100 µM	> 100 µM	> 100 µM	> 100 µM	> 100 µM	> 100 µM	> 100 µM		> 100 µM
CCOC(=O)CCC(NC(=O)OCc1ccccc1)C(=O)NC(CCC(=O)OCC)C(=O)OCC (centres undefined) (Cbz-Glu(OEt)-Glu(OEt)-OEt; configuration not given here)	> 100 µM	> 100 µM	> 100 µM	> 100 µM	> 100 µM	> 100 µM	> 100 µM	> 100 µM	> 100 µM	> 100 µM		> 100 µM
C/C=C\C(CC(=O)NCC(=O)c1c[nH]c2ccccc12)CC(=O)OC (centres undefined)	> 100 µM	> 100 µM	> 100 µM	> 100 µM	> 100 µM	> 100 µM	> 100 µM	> 100 µM	> 100 µM	> 100 µM		> 100 µM
CCOC(=O)CCC1(CCC(=O)OCC)CCCCCCCCC(CCC(=O)OCC)(CCC(=O)OCC)C(=O)C1=O	> 100 µM	> 100 µM	> 100 µM	> 100 µM	> 100 µM	> 100 µM	> 100 µM	> 100 µM	> 100 µM	> 100 µM		> 100 µM
CCOC(=O)C(NC(=O)c1ccccc1)(N1CCN(c2cc3c(cc2F)c(=O)c(C(=O)O)cn3C2CC2)CC1)C(F)(F)F (centres undefined)	50.2 µM	67.1 µM	66.3 µM		29.4 µM	80.2 µM	> 100 µM	69.9 µM		> 100 µM	36.5 µM	74.6 µM
CC(=O)Nc1c(C(=N)C#N)ncn1CCO	> 100 µM	> 100 µM	> 100 µM	> 100 µM	> 100 µM	> 100 µM	> 100 µM	> 100 µM	> 100 µM	> 100 µM		> 100 µM
O=Cc1ccc(-c2ccc(-c3ccc(CO)s3)o2)s1		> 69.1 µM	59.5 µM	40.4 µM	17.7 µM	78.8 µM	> 100 µM	69.1 µM	0.506 µM	> 71.6 µM	> 22.3 µM	> 80.1 µM
C=C1CC[C@H]2C(=O)OC(c3ccoc3)C[C@]2(C)C/C=C\C=C/1C(=O)OC (some centres undefined)	> 25 µM	> 25 µM	> 25 µM	> 25 µM	> 25 µM	> 25 µM	> 25 µM	> 25 µM	> 25 µM			> 25 µM
Cc1n[n+](Cc2ccccc2)c2sc(N)nn12	> 100 µM	> 100 µM	> 100 µM	> 100 µM	> 100 µM	> 100 µM	> 100 µM	> 100 µM	> 100 µM	> 100 µM		> 100 µM
O=C1C=C(Nc2ccc(S(=O)(=O)Nc3nccs3)cc2)c2ccccc2C1=O	82.9 µM	> 100 µM	75.1 µM	95.3 µM	38.7 µM	> 100 µM	86.3 µM	66.8 µM	> 100 µM		59.8 µM	45.2 µM

SMILES	TGI (CAKI-1 renal)	TGI (EKVX NSCLC)	TGI (HS 578T breast)	TGI (NCI/ADR-RES ovarian)	TGI (SK-MEL-5 melanoma)	TGI (SK-OV-3 ovarian)	TGI (SNB-19 CNS)	TGI (SNB-75 CNS)	TGI (UACC-257 melanoma)	TGI (DU-145 prostate)	TGI (HL-60(TB) leukemia)	TGI (SK-MEL-28 melanoma)
COc1ccc(C2(CC(C)C)CCN(S(=O)(=O)c3ccc(C)cc3)C2)cc1OC (centres undefined)	> 100 µM	> 100 µM		70.5 µM	32.6 µM	> 100 µM	> 100 µM	> 100 µM	> 100 µM	> 100 µM		> 100 µM
COCCn1cnc2c(Cl)nc(Nc3ccccc3)nc21		51.9 µM	61.6 µM	> 100 µM	> 100 µM	> 100 µM	> 100 µM	> 100 µM	> 100 µM	> 100 µM	63.3 µM	> 100 µM
CC(=O)O[C@@]12CO[C@@H]1CC(O)[C@@]1(C)C(=O)[C@H](O)C3=C(C)C(O)C[C@@](O)(C(OC(=O)c4ccccc4)C12)C3(C)C (some centres undefined)	> 100 µM	> 100 µM	1.18 µM	> 100 µM	> 100 µM		> 100 µM	5.7 µM	> 26.8 µM	> 100 µM	> 100 µM	
NC1(CCNC(=O)c2ccccc2)CCN(C(=O)c2ccccc2)CC1	> 100 µM	> 100 µM	> 100 µM	> 100 µM	> 100 µM	> 100 µM	> 100 µM	> 100 µM	> 100 µM	> 100 µM		
CC(=O)OCC1OC(n2c(C)c(N=Nc3ccc(Cl)cc3)c(C)c(C#N)c2=S)C(OC(C)=O)C(OC(C)=O)C1OC(C)=O (centres undefined)	> 100 µM		68 µM	> 100 µM	> 100 µM	> 100 µM	> 100 µM	49.1 µM	> 100 µM	> 100 µM	> 100 µM	> 100 µM
COc1ccc(/C(Cl)=C(\C#N)c2ccc(OC)c(OC)c2)cc1OC	> 100 µM	94 µM			> 100 µM		> 100 µM		> 100 µM	> 100 µM	> 100 µM	
CN1CCCOC(c2ccc(Cl)cc2)O1 (centres undefined)	> 100 µM	> 100 µM		> 100 µM	> 100 µM	> 100 µM	> 100 µM	> 100 µM	> 100 µM	> 100 µM		> 100 µM
CCOC(=O)CCC(NC(=O)c1ccc(NCc2ccc3nc(-c4ccccc4)c(Cl)nc3c2)cc1)C(=O)OCC (centres undefined)	> 100 µM	> 100 µM			23.7 µM	> 100 µM	> 100 µM	> 100 µM			> 100 µM	
Cc1ccc2c(c1)CC1(Cc3cccc(C)c3C1=O)C2=O (centres undefined)		> 100 µM	> 100 µM	> 100 µM	> 100 µM	> 100 µM		> 100 µM	> 100 µM	> 100 µM	> 100 µM	> 100 µM
COc1cccc(-c2nc(-c3cnccn3)n(C/C=C/c3ccccc3)n2)c1		> 10 µM	> 10 µM	> 10 µM			> 10 µM	> 10 µM	> 10 µM			
Cn1nnnc1SC(F)(F)c1nc2ccccc2o1	> 100 µM		> 100 µM	> 100 µM	> 100 µM	> 100 µM		> 100 µM	> 100 µM	> 100 µM		> 100 µM
Cc1ccc(NC(=O)C(=O)C2C(=O)NC(=O)NC2=O)cc1C	> 100 µM	> 100 µM			> 100 µM	> 100 µM	> 100 µM	> 100 µM	> 100 µM		> 100 µM	> 100 µM
CC(NC(=O)Cc1ccccc1)NC(=O)C(C)C(=O)NCc1ccccc1 (centres undefined)	> 100 µM	> 100 µM	83.3 µM	> 100 µM	> 100 µM	> 100 µM	58.8 µM	> 100 µM	> 100 µM	> 100 µM	> 100 µM	
CN1CCN(/C(N)=C(\C#N)C(=O)Nc2ccc(Cl)cc2)CC1	> 100 µM	> 100 µM		> 100 µM	> 100 µM	> 100 µM	> 100 µM	> 100 µM	> 100 µM	> 100 µM		> 100 µM
CC(=O)O[C@]12CCCCCC1C1(O)C(O)CCCCC12 (some centres undefined)		> 100 µM			> 100 µM	> 100 µM	> 100 µM	> 100 µM	> 100 µM		> 100 µM	> 100 µM
COCn1cnc2c(=O)nc(SC)n(-c3ccccc3)c21	> 100 µM	> 100 µM	> 100 µM	> 100 µM	> 100 µM	> 100 µM	> 100 µM	> 100 µM	> 100 µM	> 100 µM	> 100 µM	
COc1ccc(/C=N/N=C(\N)NO)c(OC)c1C	46.4 µM	41.9 µM				> 100 µM	> 100 µM		> 100 µM			> 100 µM
O=c1cc(NNc2cccc(Cl)c2)[nH]c(=O)[nH]1	36.9 µM		> 100 µM	> 100 µM	> 100 µM	> 100 µM	> 100 µM	> 100 µM	> 100 µM	> 100 µM	43.9 µM	> 100 µM
CCOP(=O)(OCC)/C(C#N)=C/c1ccc(-c2cc(C(F)(F)F)cc(C(F)(F)F)c2)o1		35 µM	> 100 µM	23.6 µM			32 µM	27.9 µM	30.6 µM	29.1 µM	14.3 µM	33 µM
O=C(Cn1c2ccc(Br)cc2c2nc3ccccc3nc21)NNC(=S)NC1CCCCC1	38.6 µM	43.1 µM	52.9 µM	34.5 µM	28 µM	70.8 µM	33.8 µM	47.5 µM	30 µM	29.4 µM		31.6 µM

— PubChem BioAssay (NCI)
